Measured values reported in US10196403B2, “Compounds and compositions and uses thereof” (Sunovion Pharmaceuticals Inc., priority 2016, dated 2019).

Test system: mice
Experiment: Neuropharmacological Assay (SmartCube)
Assay type: in vivo
Settings: for POTENCY (minimal effective dose, MED) / minimal effective dose: MED = dose having 50% or more total activity in SmartCube; for AD: ADHD (SmartCube probability) / AG: analgesic (SmartCube probability) / AX: anxiolytic (SmartCube probability) / CE: cognitive enhancer (SmartCube probability) / DP: anti-depressant (SmartCube probability) / MS: mood stabilizer (SmartCube probability) / PS: anti-psychotic (SmartCube probability) / SD: sedative hypnotic (SmartCube probability) / UN: uncharacterized CNS activity (SmartCube probability): mice, i.p. 15 min before test, most efficacious dose(s) of 3 doses; for minimal effective dose: Mus musculus, read-out: POTENCY (minimal effective dose, MED)
Procedure, shortened: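 Compounds in NMP/PEG/propylene glycol given i.p. 15 min before automated video-based behavioral testing, at 3 doses; behavioral signature compared with a reference-compound database to give probability per drug class, reported at most efficacious dose. MED = dose (mpk) giving ≥50% total activity; doses typically 0.3–30 mpk.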

| Structure (SMILES) | POTENCY (minimal effective dose, MED) | AD: ADHD (SmartCube probability) | AG: analgesic (SmartCube probability) | AX: anxiolytic (SmartCube probability) | CE: cognitive enhancer (SmartCube probability) | DP: anti-depressant (SmartCube probability) | MS: mood stabilizer (SmartCube probability) | PS: anti-psychotic (SmartCube probability) | SD: sedative hypnotic (SmartCube probability) | UN: uncharacterized CNS activity (SmartCube probability) | minimal effective dose [mg/kg] |
| --- | --- | --- | --- | --- | --- | --- | --- | --- | --- | --- | --- |
| CC(N)C1OCCc2ccc3c(c21)OCO3 (stereo not drawn) [Example 55] | C (>10 to ≤30 mpk) | + (LOQ≤ + <5%) | ++ (5%≤ ++ <25%) | ++ (5%≤ ++ <25%) | + (LOQ≤ + <5%) | ++ (5%≤ ++ <25%) | + (LOQ≤ + <5%) | + (LOQ≤ + <5%) | + (LOQ≤ + <5%) | ++++ (50%≤ ++++) |  |
| CNC[C@@H]1OC[C@H](O)c2ccc3c(c21)OCO3 (single isomer, unassigned) [Example 114] |  | + (LOQ≤ + <5%) | + (LOQ≤ + <5%) | ++ (5%≤ ++ <25%) | + (LOQ≤ + <5%) | + (LOQ≤ + <5%) | + (LOQ≤ + <5%) | ++ (5%≤ ++ <25%) | + (LOQ≤ + <5%) | +++ (25%≤ +++ <50%) | 10 to 30 |
| CNC[C@H]1OCCc2c1ccc1c2OCO1 [Example 3, (S)-1-(8,9-dihydro-6H-[1,3]dioxolo[4,5-f]isochromen-6-yl)-N-methylmethanamine] |  | ++ (5%≤ ++ <25%) | ++ (5%≤ ++ <25%) | ++ (5%≤ ++ <25%) | + (LOQ≤ + <5%) | +++ (25%≤ +++ <50%) | + (LOQ≤ + <5%) | + (LOQ≤ + <5%) | + (LOQ≤ + <5%) | + (LOQ≤ + <5%) | 10 to 30 |
| CNC[C@@H]1OCCc2c(O)cc3c(c21)OCO3 (single isomer, unassigned) [Example 103] |  | + (LOQ≤ + <5%) | + (LOQ≤ + <5%) | + (LOQ≤ + <5%) | + (LOQ≤ + <5%) | + (LOQ≤ + <5%) | + (LOQ≤ + <5%) | + (LOQ≤ + <5%) | + (LOQ≤ + <5%) | + (LOQ≤ + <5%) | > 30 |
| CNC[C@@H]1OCCCc2cccc(F)c21 [Example 61, (R)-1-(9-fluoro-1,3,4,5-tetrahydrobenzo[c]oxepin-1-yl)-N-methylmethanamine] |  | + (LOQ≤ + <5%) | + (LOQ≤ + <5%) | ++ (5%≤ ++ <25%) | + (LOQ≤ + <5%) | + (LOQ≤ + <5%) | + (LOQ≤ + <5%) | ++++ (50%≤ ++++) | + (LOQ≤ + <5%) | +++ (25%≤ +++ <50%) | 3 to 10 |
| NC[C@@H]1OCCc2c(Cl)cccc21 [Example 67, (R)-(5-chloroisochroman-1-yl)methanamine] | A-B | + (LOQ≤ + <5%) | + (LOQ≤ + <5%) | ++ (5%≤ ++ <25%) | + (LOQ≤ + <5%) | ++++ (50%≤ ++++) | + (LOQ≤ + <5%) | ++ (5%≤ ++ <25%) | + (LOQ≤ + <5%) | + (LOQ≤ + <5%) |  |
| CNC[C@@H]1OCC(F)(F)c2ccccc21 [Example 28, (R)-1-(4,4-difluoroisochroman-1-yl)-N-methylmethanamine] |  | + (LOQ≤ + <5%) | ++ (5%≤ ++ <25%) | ++ (5%≤ ++ <25%) | ++ (5%≤ ++ <25%) | ++ (5%≤ ++ <25%) | + (LOQ≤ + <5%) | +++ (25%≤ +++ <50%) | ++ (5%≤ ++ <25%) | +++ (25%≤ +++ <50%) | < 3 |
| CNC[C@@H]1OCc2cccc(F)c21 [Example 69, (R)-1-(7-fluoro-1,3-dihydroisobenzofuran-1-yl)-N-methylmethanamine] |  | ++ (5%≤ ++ <25%) | +++ (25%≤ +++ <50%) | ++ (5%≤ ++ <25%) | + (LOQ≤ + <5%) | ++ (5%≤ ++ <25%) | ++ (5%≤ ++ <25%) | ++ (5%≤ ++ <25%) | + (LOQ≤ + <5%) | ++++ (50%≤ ++++) | < 3 |
| CNC[C@H]1OCCc2c(F)ccc(F)c21 [Example 30, (S)-1-(5,8-difluoroisochroman-1-yl)-N-methylmethanamine] |  | + (LOQ≤ + <5%) | ++ (5%≤ ++ <25%) | ++ (5%≤ ++ <25%) | ++ (5%≤ ++ <25%) | ++ (5%≤ ++ <25%) | + (LOQ≤ + <5%) | ++ (5%≤ ++ <25%) | ++ (5%≤ ++ <25%) | +++ (25%≤ +++ <50%) | 3 to 10 |
| CNC[C@H]1OC[C@H](O)c2ccc3c(c21)OCO3 (single isomer, unassigned) [Example 112] |  | + (LOQ≤ + <5%) | + (LOQ≤ + <5%) | ++ (5%≤ ++ <25%) | + (LOQ≤ + <5%) | ++ (5%≤ ++ <25%) | + (LOQ≤ + <5%) | + (LOQ≤ + <5%) | + (LOQ≤ + <5%) | + (LOQ≤ + <5%) | > 30 |
| CNC[C@H]1OCCc2cccc(C#N)c21 [Example 44, (S)-1-((methylamino)methyl)isochromane-8-carbonitrile] |  | + (LOQ≤ + <5%) | ++ (5%≤ ++ <25%) | ++ (5%≤ ++ <25%) | ++ (5%≤ ++ <25%) | + (LOQ≤ + <5%) | + (LOQ≤ + <5%) | ++ (5%≤ ++ <25%) | + (LOQ≤ + <5%) | +++ (25%≤ +++ <50%) | 3 to 10 |
| NC[C@H]1OCCc2ccc3c(c21)OCO3 [Example 7, (S)-(6,9-dihydro-7H-[1,3]dioxolo[4,5-h]isochromen-9-yl)methanamine] |  | ++ (5%≤ ++ <25%) | +++ (25%≤ +++ <50%) | +++ (25%≤ +++ <50%) | ++ (5%≤ ++ <25%) | ++ (5%≤ ++ <25%) | ++ (5%≤ ++ <25%) | ++ (5%≤ ++ <25%) | + (LOQ≤ + <5%) | ++ (5%≤ ++ <25%) | < 3 |
